Columns and labels:
Format in all cases: cell-based
[1] = test system: Escherichia coli (NBRC-3972) and/or Staphylococcus aureus (NBRC-12732); experiment: MIC in the presence of an anionic surfactant; conditions: in the presence of linear alkylbenzene sulfate 80 ppm and polyoxyalkylenealkyl ether sulfate 80 ppm
Experimental: An aqueous solution containing the antimicrobial agent was serially diluted by two fold with a Mueller-Hinton medium to prepare dilution series of a medium containing the antimicrobial agent. After that, the medium containing the antimicrobial agent at each concentration was added, in an amount of 50 μl each, to a 96 well polystyrene plate. Next, colonies of Escherichia coli (NBRC-3972) and/or Staphylococcus aureus (NBRC-12732) which have been grown for 18 hours in a Mueller-Hinton agar medium were suspended in a Butterfield's buffer solution to prepare a liquid containing microbial cells of 10×10^8 cells/mL or so. The prepared liquid containing microbial cells was diluted to 10×10^6 cells/mL or so in a Mueller-Hinton medium, and added in an amount of 50 μl to each of the dilution series prepared in the above. […] Presence or absence of the growth of the bacterial cells was determined with a naked eye by following an increase in turbidity.
As for the anionic surfactant, linear alkylbenzene sulfate was used at 80 ppm and polyoxyalkylenealkyl ether sulfate was used at 80 ppm.

[2] = test system: Staphylococcus aureus (NBRC-12732); experiment: Minimum growth inhibitory concentration (MIC); conditions: 0.1% by weight agent with 1% by weight NaOH, pH 12.5, stored 18 days at 55° C.
Experimental: (§1) An aqueous solution containing the antimicrobial agent was serially diluted by two fold with a Mueller-Hinton medium to prepare dilution series of a medium containing the antimicrobial agent. After that, the medium containing the antimicrobial agent at each concentration was added, in an amount of 50 μl each, to a 96 well polystyrene plate. […] The prepared liquid containing microbial cells was diluted to 10×10^6 cells/mL or so in a Mueller-Hinton medium, and added in an amount of 50 μl to each of the dilution series prepared in the above. […] Presence or absence of the growth of the bacterial cells was determined with a naked eye by following an increase in turbidity. To an aqueous solution added with the polymer 1 which has been obtained in Preparation Example 1 and benzalkonium chloride at 0.1% by weight, various kinds of alkali modifying agent shown in Table 8 were mixed at 1% by weight to prepare an antimicrobial agent composition. The storage stability test was carried out for the antimicrobial agent compositions for 18 days at 55° C. […] Meanwhile, MIC values were described as concentration of the antimicrobial agent.

[3] = test system: Escherichia coli (NBRC-3972); experiment: Minimum growth inhibitory concentration (MIC); conditions: 0.1% by weight agent with 1% by weight NaOH, pH 12.5, stored 18 days at 55° C.
Experimental: as §1

Substance: Benzalkonium chloride
- MIC [1]: 625 ppm
- MIC Staphylococcus aureus after storage stability test [2]: 250 ppm
- MIC Escherichia coli after storage stability test [3]: 250 ppm

From patent US10905117B2, “Antimicrobial agent containing polyalkyleneimine derivative” (NIPPON SHOKUBAI CO., LTD, priority 2014, dated 2021)
